US11746133B2, “Cell penetrating peptides that inhibit IRF5 nuclear localization” (Rutgers, The State University of New Jersey, priority 2015, dated 2023)
Residues, ends and D or L forms follow the SMILES beside them.

Legend:
Ramos B cells [1] = experiment: Propidium iodide staining to quantify cell death after inhibitor titration; assay type: cell-based, human; conditions: 25 uM FITC-conjugated inhibitor, 2 hours
Procedure: Peptide inhibitor titration and uptake. Ramos B cells or THP1 cells were treated with 0.025, 0.25, 2.5, and 25 uM of FITC conjugated peptide inhibitors for 2 hours. Cells were washed, stained with propidium iodide, and immediately analyzed by flow cytometry for uptake of FITC peptide. For uptake experiments in PBMCs, cells were incubated with 10 uM of either mock, scrambled, N-term′ NLS, or C-term′ NLS FITC conjugated inhibitor for 2 hours. Cells were then washed and blocked as previously outlined, and subsequently stained with CD19-BV510 and CD14-PE (Biolegend Catalog #301806). Cells were fixed, stained with DRAQ5 nuclear dye and analyzed by imagestream for uptake of FITC peptide.
IRF5 Peptide Inhibitors readily enter the cell and have low associated toxicity. IRF5 peptide inhibitors were conjugated to FITC moieties to measure cellular uptake over a dose-dependent response. Ramos B cells were treated with increasing concentrations of FITC-conjugated inhibitor for 2 hours. Cells were washed and subsequently treated with propidium iodide to quantify cell death. […] Cell cycle was measured through propidium iodide incorporation, and quantified through flow cytometry. […] To determine if it would be possible to increase uptake of the inhibitor in B cells, uptake following incubation with 10 uM for 1 hour was measured.

Ramos B cells [2] = experiment: Tryphan blue staining for cell viability after 24 hours with inhibitor; assay type: cell-based, human; conditions: 25 uM
Procedure: IRF5 Peptide Inhibitors readily enter the cell and have low associated toxicity. IRF5 peptide inhibitors were conjugated to FITC moieties to measure cellular uptake over a dose-dependent response. Ramos B cells were treated with increasing concentrations of FITC-conjugated inhibitor for 2 hours. Cells were washed and subsequently treated with propidium iodide to quantify cell death. While at the lower doses of 0.025 and 0.25 uM minimal uptake was seen, at 2.5 uM however, greater than 95% of cells were positive for the FITC-conjugated inhibitor (FIG. 1A). In addition, less than 3% of cells stained positive for propidium iodide, indicating low toxicity for the inhibitor at this dose. […] However, no significant increase in uptake was seen between 2.5 uM and 25 uM concentrations of inhibitor. To ensure no impact on cell viability from treatment with the inhibitors, Ramos B cells were treated with varying concentrations of inhibitor as used previously for the titration experiments for 24 hours, and tryphan blue staining was subsequently performed. […] Cell cycle was measured through propidium iodide incorporation, and quantified through flow cytometry. […] To determine if it would be possible to increase uptake of the inhibitor in B cells, uptake following incubation with 10 uM for 1 hour was measured.

IRF5 [3] = target: T1, IRF5 (Homo sapiens, UniProt Q13568); experiment: R848-induced IRF5 nuclear translocation in PBMCs by imaging flow cytometry; assay type: cell-based; conditions: inhibitor 1 hour, then 500 ng/mL R848 2 hours, vs scrambled control
T1 construct: endogenous in cells; host or cells: healthy-donor human PBMCs; CD14+ monocytes and CD19+ B cells
T1 sequence (Q13568 1-498): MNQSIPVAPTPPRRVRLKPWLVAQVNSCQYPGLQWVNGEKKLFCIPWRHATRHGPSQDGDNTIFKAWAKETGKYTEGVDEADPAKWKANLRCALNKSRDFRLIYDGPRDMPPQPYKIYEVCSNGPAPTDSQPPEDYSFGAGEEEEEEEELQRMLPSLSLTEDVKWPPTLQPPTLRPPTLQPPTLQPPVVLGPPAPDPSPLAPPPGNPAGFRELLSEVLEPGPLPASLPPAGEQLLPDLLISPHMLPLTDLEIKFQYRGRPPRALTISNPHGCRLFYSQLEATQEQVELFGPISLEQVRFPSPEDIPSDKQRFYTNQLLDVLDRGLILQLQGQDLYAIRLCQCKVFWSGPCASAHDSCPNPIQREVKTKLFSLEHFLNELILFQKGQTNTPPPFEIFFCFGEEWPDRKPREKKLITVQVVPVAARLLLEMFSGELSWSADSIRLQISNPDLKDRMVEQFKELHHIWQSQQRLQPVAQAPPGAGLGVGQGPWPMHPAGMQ
Procedure: FIGS. 2A-E. Peptides (non-FITC-conjugated) inhibit R848-induced IRF5 nuclear translocation. Healthy donor PBMCs were pre-incubated with peptide inhibitors for 1 hour and then stimulated for 2 hours with the Toll-like receptor agonist R848. IRF5 cellular localization was determined in CD14+ monocytes (FIG. 2A) and CD19+ B cells (FIG. 2B) by staining with intracellular IRF5 and DRAQ5. Similarity scores between IRF5 and DRAQ5 were determined on the Amnis Imagestream using IDEAS software. […] Lamin B1 serves as a nuclear protein loading control. Cells were pre-incubated with the indicated inhibitors for 1 hour and then stimulated with LPS for 2 hours. […] IRF5 band intensity was normalized by Lamin B1, and relative fold change of IRF5 in nuclear portion was calculated over PBS treated sample. […]
Imaging Flow Cytometry. […] Nuclear translocation was quantified in the Amnis IDEAS software suite. […] Finally, IRF5 nuclear translocation was determined through use of the similarity score feature contrasting IRF5 staining with DRAQ5 staining. […]
IRF5 peptide inhibitor blocks IRF5 nuclear translocation in both B cells and monocytes. […] As IRF5 has been implicated in the onset of autoimmune diseases in both monocytes and B cells, it was sought to be determined if IRF5 nuclear translocation could be inhibited in both cell populations following stimulation with the TLR7 agonist R848. […]

IRF5 [4] = target: T1, IRF5; experiment: Cell fractionation and Western blot of nuclear IRF5 in primary monocytes; assay type: cell-based; conditions: isolated primary monocytes, inhibitor then R848 stimulation
Procedure: FIGS. 2A-E. Peptides (non-FITC-conjugated) inhibit R848-induced IRF5 nuclear translocation. Healthy donor PBMCs were pre-incubated with peptide inhibitors for 1 hour and then stimulated for 2 hours with the Toll-like receptor agonist R848. IRF5 cellular localization was determined in CD14+ monocytes (FIG. 2A) and CD19+ B cells (FIG. 2B) by staining with intracellular IRF5 and DRAQ5. Similarity scores between IRF5 and DRAQ5 were determined on the Amnis Imagestream using IDEAS software. […] Lamin B1 serves as a nuclear protein loading control. […] IRF5 band intensity was normalized by Lamin B1, and relative fold change of IRF5 in nuclear portion was calculated over PBS treated sample. In FIGS. 2A-B and E, the bar on the left is mock (NT) and the bar on the right is R848.
Cell Fractionation. Cells were fractionated according to manufacturer's protocol (Cell Signaling, Cell fractionation kit, #9038). Following fractionation, lysates were sonicated and boiled. Nuclear fraction was analyzed by Western blot as follows: 30 μL of lysate was loaded onto a 3-8% NuPAGE® Novex® Tris-Acetate gel (Life Technologies, #EA0378BOX), and transferred onto a 0.45 μm nitrocellulose membrane (Bio-Rad Laboratories). […] Membrane was incubated with Clarity™ ECL Western Blotting Substrate (Bio-Rad Laboratories) and chemiluminescence detected with a ChemiDoc™ MP Imaging System (Bio-Rad Laboratories). […]

Compound | associated toxicity (propidium iodide) (Ramos B cells [1]) | viability by tryphan blue staining (Ramos B cells [2]) | IRF5 nuclear translocation in B cells (IRF5 [3]) | IRF5 nuclear translocation in monocytes (IRF5 [3]) | levels of IRF5 in the nucleus (cell fractionation, Western blot) (IRF5 [4])
CC[C@H](C)[C@H](NC(=O)[C@H](CCCCN)NC(=O)[C@@H](NC(=O)[C@H](CCC(N)=O)NC(=O)[C@H](CCCNC(=N)N)NC(=O)[C@@H](N)CC(=O)O)[C@@H](C)CC)C(=O)N[C@@H](Cc1c[nH]c2ccccc12)C(=O)N[C@@H](Cc1ccccc1)C(=O)N[C@@H](CCC(N)=O)C(=O)N[C@@H](CC(N)=O)C(=O)N[C@@H](CCCNC(=N)N)C(=O)N[C@@H](CCCNC(=N)N)C(=O)N[C@@H](CCSC)C(=O)N[C@@H](CCCCN)C(=O)N[C@@H](Cc1c[nH]c2ccccc12)C(=O)N[C@@H](CCCCN)C(=O)N[C@@H](CCCCN)C(=O)N1CCC[C@H]1C(=O)N[C@@H](CCCNC(=N)N)C(=O)N[C@@H](CCCNC(=N)N)C(=O)N[C@H](C(=O)N[C@@H](CCCNC(=N)N)C(=O)N[C@@H](CC(C)C)C(=O)N[C@@H](CCCCN)C(=O)O)C(C)C [IRF5 5′NLS] (H-DRQIKIWFQNRRMKWKKPRRVRLK-OH) | minimal associated toxicity |  |  |  | 
CC[C@H](C)[C@H](NC(=O)[C@H](CCCCN)NC(=O)[C@@H](NC(=O)[C@H](CCC(N)=O)NC(=O)[C@H](CCCNC(=N)N)NC(=O)[C@@H](N)CC(=O)O)[C@@H](C)CC)C(=O)N[C@@H](Cc1c[nH]c2ccccc12)C(=O)N[C@@H](Cc1ccccc1)C(=O)N[C@@H](CCC(N)=O)C(=O)N[C@@H](CC(N)=O)C(=O)N[C@@H](CCCNC(=N)N)C(=O)N[C@@H](CCCNC(=N)N)C(=O)N[C@@H](CCSC)C(=O)N[C@@H](CCCCN)C(=O)N[C@@H](Cc1c[nH]c2ccccc12)C(=O)N[C@@H](CCCCN)C(=O)N[C@@H](CCCCN)C(=O)N1CCC[C@H]1C(=O)N[C@@H](CCCCN)C(=O)N[C@@H](CCCNC(=N)N)C(=O)N[C@@H](CCCNC(=N)N)C(=O)N[C@@H](CCCNC(=N)N)C(=O)N[C@@H](CC(C)C)C(=O)N[C@H](C(=O)O)C(C)C [Scrambled 5′NLS] (H-DRQIKIWFQNRRMKWKKPKRRRLV-OH; N-terminus and C-terminus assumed) | minimal associated toxicity | decrease in viability |  |  | 
DRQIKIWFQNRRMKWKKPREKKLI [IRF5 3′NLS] |  |  | no inhibition | only slightly reduced nuclear translocation | Reduced levels of IRF5
